The record followed here is patent US7994162B2, “2-alkoxy-3,4,5-trihydroxy-alkylamide-benzazepines, the preparation and use thereof, and compositions containing the same” (Sanofi-Aventis, priority 2006, dated 2011).

Usually IC50 stands for the concentration that gives 50% inhibition. Low readings indicate greater potency in that assay, high ones weaker potency in that assay. As usually defined, the Papp is a coefficient for how fast a substance crosses the barrier. A higher Papp goes with fast passage.

The first data set has as its system HCT116 cells. Nature of the data set: Inhibition of the cell proliferation of HCT116 cells (14C-thymidine incorporation). Format: cell-based. As to conditions: Homo sapiens, HCT-116, 96 hours. Here is the method:
The antiproliferative activity of the products of the examples of Table 1 was determined by measuring the inhibition of the cell proliferation of HCT116 cells. The cells are seeded into a cell culture medium at a concentration of 10 000 cells per well, in 0.17 ml of medium, and 20 μl of test product, at various concentrations and 10 μl of thymidine [methyl-14C] (100 μCi/ml—specific activity 47.90 mCi/mmol; NEN Technologies reference NEC568 batch 3550-001) are added and the cells are then incubated at 37° C. and 5% CO2.
Medium used for the HCT116 cell culture: DMEM medium, 2 mM L-glutamine, 200 IU/ml penicillin, 200 μg/ml streptomycin and 10% (V/V) foetal calf serum (Life Technologies).
After 96 hours, the ^14C-thymidine incorporation is counted in a 1450 Microbeta Wallac Trilux liquid scintillation counter. The results R are expressed in cpm (counts per minute) and converted to percentage growth inhibition GI % by firstly subtracting the mean of the number of cpm of the wells without cells B and then dividing by the number of cpm of the wells of the nontreated cells C comprising 20 μl of product diluting medium containing 1% of ethanol (GI %=(R−B)×100/C %).
The IC50 values are calculated using equation 205 of the XLFit software (IDBS company, UK) by nonlinear regression analysis using the Marquardt algorithm (Donald W. MARQUARDT, J. Soc. industry. appl, vol 11, No. 2, June, 1963).
Compound `CO[C@@H](C(=O)NC1CCc2ccccc2N(Cc2cc(F)cc(F)c2)C1=O)[C@H](O)[C@@H](O)[C@H](O)/C=C/C(C)(C)C` (stereo partly shown) [Example 1] had an IC50 of 14 nM.

`CO[C@@H](C(=O)NC1CCc2ccccc2N(C)C1=O)[C@H](O)[C@@H](O)[C@H](O)/C=C/C(C)(C)C` (stereo partly shown) [Example 2] gave an IC50 of 15 nM.

`CO[C@@H](C(=O)NC1CCc2cc(Br)ccc2NC1=O)[C@H](O)[C@@H](O)[C@H](O)/C=C/C(C)(C)C` (stereo partly drawn) [Example 3, N-(7-bromo-2-oxo-2,3,4,5-tetrahydro-1H-1-benzazepin-3-yl)-(E)-(2R,3R,4S,5R)-3,4,5-trihydroxy-2-methoxy-8,8-dimethylnon-6-enamide] gave an IC50 of 58 nM.

Consider `CO[C@@H](C(=O)N[C@H]1CCc2cc(Br)ccc2NC1=O)[C@H](O)[C@@H](O)[C@H](O)/C=C/C(C)(C)C` [Example 3a], for which the IC50 worked out at 32 nM.

On to `CO[C@@H](C(=O)NC1CCc2cc(-c3ccccc3)ccc2NC1=O)[C@H](O)[C@@H](O)[C@H](O)/C=C/C(C)(C)C` (stereo partly drawn) [Example 4, N-(7-phenyl-2-oxo-2,3,4,5-tetrahydro-1H-1-benzazepin-3-yl)-(E)-(2R,3R,4S,5R)-3,4,5-trihydroxy-2-methoxy-8,8-dimethylnon-6-enamide], for which the IC50 stood at 75 nM.

Take `CO[C@@H](C(=O)N[C@H]1CCc2cc(-c3ccccc3)ccc2NC1=O)[C@H](O)[C@@H](O)[C@H](O)/C=C/C(C)(C)C` [Example 4a, (2R,3R,4S,5R,6E)-3,4,5-trihydroxy-2-methoxy-8,8-dimethyl-N-[(3S)-2-oxo-7-phenyl-2,3,4,5-tetrahydro-1H-1-benzazepin-3-yl]non-6-enamide]: the IC50 was found to be 14 nM.

Test system in a further data set: not listed separately
Nature of the data set: in vitro. The settings on record: human, Caco-2.
Consider `CO[C@@H](C(=O)N[C@H]1CCc2cc(-c3ccccc3)ccc2NC1=O)[C@H](O)[C@@H](O)[C@H](O)/C=C/C(C)(C)C` [Example 4a, (2R,3R,4S,5R,6E)-3,4,5-trihydroxy-2-methoxy-8,8-dimethyl-N-[(3S)-2-oxo-7-phenyl-2,3,4,5-tetrahydro-1H-1-benzazepin-3-yl]non-6-enamide], for which the Papp came to 4.8 ×10⁻⁶ cm/s.
